Experimental data as given in patent US20260285850A1, “SUBSTITUTED OXAZOLIDINONES AND IMIDAZOLINONES AS HERBICIDES” (FMC CORPORATION, priority 2023, published 2026).

Experiments:
Format in all cases: in vivo
rice (Oryza sativa) = test: Test B flooded paddy test, visual plant response rating 0-100; conditions: 250 g ai/ha, Flood, applied to paddy water, evaluated after 13 days
Procedure, shortened: (§1)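 Compounds applied to standing paddy water (3 cm above soil, maintained for the test duration) on 2-leaf-stage plants; visual rating vs controls at 13 days, greenhouse.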

[1] = system: ducksalad (Heteranthera limosa); test: as above; conditions: 250 g ai/ha, Flood, applied to paddy water, evaluated after 13 days
Procedure, shortened: as §1

[2] = system: sedge, umbrella (small-flower umbrella sedge, Cyperus difformis); test: as above; conditions: 250 g ai/ha, Flood, applied to paddy water, evaluated after 13 days
Procedure, shortened: as §1

[3] = system: barnyardgrass (Echinochloa crusgalli); test: as above; conditions: 250 g ai/ha, Flood, applied to paddy water, evaluated after 13 days
Procedure, shortened: as §1

[4] = system: barnyardgrass (Echinochloa crus-galli); test: Test A preemergence soil spray, visual injury rating 0-100; conditions: 10 days
Procedure, shortened: (§2)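 Greenhouse test: loam/sand pots received a surfactant-containing formulation, as a preemergence directed soil spray or a postemergence spray on young plants. Injury was judged visually at day 10 relative to untreated controls.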

[5] = system: ryegrass, Italian (italian ryegrass, Lolium multiflorum); test: as above; conditions: 10 days
Procedure, shortened: as §2

[6] = system: ragweed (common ragweed, Ambrosia artemisiifolia); test: as above; conditions: 10 days
Procedure, shortened: as §2

corn (Zea mays) [7] = test: as above; conditions: 10 days
Procedure, shortened: as §2

[8] = system: blackgrass (Alopecurus myosuroides); test: as above; conditions: 10 days
Procedure, shortened: as §2

kochia (Bassia scoparia) [9] = test: as above; conditions: 10 days
Procedure, shortened: as §2

[10] = system: wheat (Triticum aestivum); test: as above; conditions: 10 days
Procedure, shortened: as §2

soybean (Glycine max) [11] = test: as above; conditions: 10 days
Procedure, shortened: as §2

[12] = system: oat, wild (wild oat, Avena fatua); test: as above; conditions: 10 days
Procedure, shortened: as §2

[13] = system: palmer (palmer amaranth, palmer pigweed, Amaranthus palmeri); test: as above; conditions: 10 days
Procedure, shortened: as §2

[14] = system: green foxtail (Setaria viridis); test: as above; conditions: 10 days
Procedure, shortened: as §2

[15] = system: barnyardgrass (Echinochloa crus-galli); test: Test A postemergence application, visual injury rating 0-100
Procedure, shortened: as §2

[16] = system: ryegrass, Italian (italian ryegrass, Lolium multiflorum); test: as above
Procedure, shortened: as §2

[17] = system: horseweed (Erigeron canadensis); test: as above
Procedure, shortened: as §2

[18] = system: ragweed (common ragweed, Ambrosia artemisiifolia); test: as above
Procedure, shortened: as §2

corn (Zea mays) [19] = test: as above
Procedure, shortened: as §2

[20] = system: blackgrass (Alopecurus myosuroides); test: as above
Procedure, shortened: as §2

kochia (Bassia scoparia) [21] = test: as above
Procedure, shortened: as §2

[22] = system: wheat (Triticum aestivum); test: as above
Procedure, shortened: as §2

soybean (Glycine max) [23] = test: as above
Procedure, shortened: as §2

[24] = system: oat, wild (wild oat, Avena fatua); test: as above
Procedure, shortened: as §2

[25] = system: palmer (palmer amaranth, palmer pigweed, Amaranthus palmeri); test: as above
Procedure, shortened: as §2

[26] = system: green foxtail (Setaria viridis); test: as above
Procedure, shortened: as §2

[27] = 62 g ai/ha, 0 = no effect, 100 = complete control
[28] = 62 g ai/ha, postemergence, 10 days, 0 = no effect, 100 = complete control
[29] = Postemergence, 16 g ai/ha, greenhouse 10 days, 0 no effect, 100 complete control

SMILES: COC(=O)COC(=O)C1=CCC(NC(=O)C2(C)CN(c3cc(Cl)cc(Cl)c3)C(=O)O2)C1 (centres unmarked) [Compound 110]
- Plant response rating, Rice (0 to 100 scale, 0 is no effect and 100 is complete control) (rice (Oryza sativa)): 40
- Plant response rating, Ducksalad (0 to 100 scale, 0 is no effect and 100 is complete control) [1]: 95
- Plant response rating, Sedge, Umbrella (0 to 100 scale, 0 is no effect and 100 is complete control) [2]: 98
- Plant response rating, Barnyardgrass (0 to 100 scale, 0 is no effect and 100 is complete control) [3]: 60
- Barnyardgrass plant response rating ([4]; 16 g ai/ha, 0 to 100 scale): 50
- Barnyardgrass plant response rating (0-100) [4, 27]: 100
- Ryegrass, Italian plant response rating ([5]; 16 g ai/ha, 0 to 100 scale): 0
- Ryegrass, Italian plant response rating (0-100) [5, 27]: 60
- Ragweed plant response rating ([6]; 16 g ai/ha, 0 to 100 scale): 0
- Ragweed plant response rating (0-100) [6, 27]: 0
- Corn plant response rating (corn (Zea mays) [7]; 16 g ai/ha, 0 to 100 scale): 0
- Corn plant response rating (0-100) (corn (Zea mays) [7]; [27]): 30
- Blackgrass plant response rating ([8]; 16 g ai/ha, 0 to 100 scale): 0
- Blackgrass plant response rating (0-100) [8, 27]: 30
- Kochia plant response rating (kochia (Bassia scoparia) [9]; 16 g ai/ha, 0 to 100 scale): 0
- Kochia plant response rating (0-100) (kochia (Bassia scoparia) [9]; [27]): 0
- Wheat plant response rating ([10]; 16 g ai/ha, 0 to 100 scale): 40
- Wheat plant response rating (0-100) [10, 27]: 80
- Soybean plant response rating (soybean (Glycine max) [11]; 16 g ai/ha, 0 to 100 scale): 10
- Soybean plant response rating (0-100) (soybean (Glycine max) [11]; [27]): 0
- Oat, Wild plant response rating ([12]; 16 g ai/ha, 0 to 100 scale): 0
- Oat, Wild plant response rating (0-100) [12, 27]: 0
- Pigweed, Palmer plant response rating ([13]; 16 g ai/ha, 0 to 100 scale): 80
- Pigweed, Palmer plant response rating (0-100) [13, 27]: 100
- Foxtail, Green plant response rating ([14]; 16 g ai/ha, 0 to 100 scale): 0
- Foxtail, Green plant response rating (0-100) [14, 27]: 90
- Barnyardgrass plant response rating (0-100) [15, 28]: 100
- Barnyardgrass plant response rating (0 to 100 scale) [15, 29]: 90
- Ryegrass, Italian plant response rating (0-100) [16, 28]: 70
- Ryegrass, Italian plant response rating (0 to 100 scale) [16, 29]: 50
- Horseweed plant response rating (0-100) [17, 28]: 80
- Horseweed plant response rating (0 to 100 scale) [17, 29]: 70
- Ragweed plant response rating (0-100) [18, 28]: 80
- Ragweed plant response rating (0 to 100 scale) [18, 29]: 50
- Corn plant response rating (0-100) (corn (Zea mays) [19]; [28]): 100
- Corn plant response rating (0 to 100 scale) (corn (Zea mays) [19]; [29]): 100
- Blackgrass plant response rating (0-100) [20, 28]: 100
- Blackgrass plant response rating (0 to 100 scale) [20, 29]: 80
- Kochia plant response rating (0-100) (kochia (Bassia scoparia) [21]; [28]): 90
- Kochia plant response rating (0 to 100 scale) (kochia (Bassia scoparia) [21]; [29]): 90
- Wheat plant response rating (0-100) [22, 28]: 90
- Wheat plant response rating (0 to 100 scale) [22, 29]: 50
- Soybean plant response rating (0-100) (soybean (Glycine max) [23]; [28]): 70
- Soybean plant response rating (0 to 100 scale) (soybean (Glycine max) [23]; [29]): 30
- Oat, Wild plant response rating (0-100) [24, 28]: 30
- Oat, Wild plant response rating (0 to 100 scale) [24, 29]: 20
- Pigweed, Palmer plant response rating (0-100) [25, 28]: 100
- Pigweed, Palmer plant response rating (0 to 100 scale) [25, 29]: 90
- Foxtail, Green plant response rating (0-100) [26, 28]: 90
- Foxtail, Green plant response rating (0 to 100 scale) [26, 29]: 90
